From US11096939B2, “KRAS G12C inhibitors and methods of using the same” (Amgen Inc., priority 2018, dated 2021)
Where two headings read alike, the source gives them in different places.

Columns and labels:
[1] = molecular target: GDP-bound KRAS protein (aa 1-169), containing both G12C and C118A amino acid substitutions (Homo sapiens, UniProt P01116, C118A/G12C); experiment: Coupled nucleotide exchange assay (SOS-mediated, AlphaScreen); assay type: biochemical; details: compound pre-incubation either 5 min or 2 hours (not stated per value); SOS and GTP added, cRAF AlphaScreen readout
Experimental: Coupled Nucleotide Exchange Assay:
Following compound pre-incubation, purified SOS protein (aa 564-1049) and GTP (Roche 10106399001) were added to the assay wells and incubated for an additional 30 min (for 5 min compound pre-incubation) or 1 hour (for 2 hour compound pre-incubation). To determine the extent of inhibition of SOS-mediated nucleotide exchange, purified GST-tagged cRAF (aa 1-149), nickel chelate AlphaLISA acceptor beads (PerkinElmer AL108R), and AlphaScreen glutathione donor beads (PerkinElmer 6765302) were added to the assay wells and incubated for 10 minutes. The assay plates were then read on a PerkinElmer EnVision Multilabel Reader, using AlphaScreen® technology, and data were analyzed using a 4-parameter logistic model to calculate IC50 values.

[2] = test system: Phosphorylation of ERK1/2 in MIA PaCa-2 cells; experiment: Phospho-ERK1/2 MSD assay; assay type: cell-based; details: compound 2 or 4 hours, 10 ng/mL EGF for 10 min, read-out: p-ERK IC50 (MIA-PaCa-2)
Experimental: Phospho-ERK1/2 MSD Assay:
MIA PaCa-2 (ATCC® CRL-1420™)-cells were cultured in RPMI 1640 Medium (ThermoFisher Scientific 11875093) containing 10% fetal bovine serum (ThermoFisher Scientific 16000044) and 1× penicillin-streptomycin-glutamine (ThermoFisher Scientific 10378016). Sixteen hours prior to compound treatment, MIA PaCa-2 cells were seeded in 96-well cell culture plates at a density of 25,000 cells/well and incubated at 37° C., 5% CO2. A compound dose-response titration was diluted in growth media, added to appropriate wells of a cell culture plate, and then incubated at 37° C., 5% CO2 for 2 or 4 hours. Following compound treatment, cells were stimulated with 10 ng/mL EGF (Roche 11376454001) for 10 min, washed with ice-cold Dulbecco's phosphate-buffered saline, no Ca^2+ or Mg^2+ (ThermoFisher Scientific 14190144), and then lysed in RIPA buffer (50 mM Tris-HC pH 7.5, 1% Igepal, 0.5% sodium deoxycholate, 150 mM NaCl, and 0.5% sodium dodecyl sulfate) containing protease inhibitors (Roche 4693132001) and phosphatase inhibitors (Roche 4906837001). Phosphorylation of ERK1/2 in compound-treated lysates was assayed using Phospho-ERK1/2 Whole Cell Lysate kits (Meso Scale Discovery KI51DWD) according to the manufacturer's protocol. Assay plates were read on a Meso Scale Discovery Sector Imager 6000, and data were analyzed using a 4-parameter logistic model to calculate IC50 values.

[3] = Homo sapiens, MIA PaCa-2, MIA PaCa-2 cells

Chain of GDP-bound KRAS protein (aa 1-169), containing both G12C and C118A amino acid substitutions (P01116 1-169 isoform P01116-2 G12C/C118A): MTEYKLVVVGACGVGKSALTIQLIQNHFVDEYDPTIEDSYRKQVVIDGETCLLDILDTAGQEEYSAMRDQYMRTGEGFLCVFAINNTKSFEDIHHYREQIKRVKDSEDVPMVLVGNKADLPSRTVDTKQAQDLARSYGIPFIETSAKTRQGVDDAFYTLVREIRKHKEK

Row | Coupled Exchange IC50 [1] [µM] | IC50 [2, 3] [µM] | IC50 ([2]; MIA PaCa-2 cells) [µM] | Compound
1 | 19.3 |  |  | C=CC(=O)N1C[C@H](C)N(C2=NC(=O)C(C)(CC)c3nc(-c4ccccc4F)c(Cl)cc32)C[C@H]1C (stereo partly drawn) [Example 1-4, 5-((2S,5R)-4-Acryloyl-2,5-dimethylpiperazin-1-yl)-3-chloro-8-ethyl-2-(2-fluorophenyl)-8-methyl-1,6-naphthyridin-7(8H)-one]
2 | 8.04 | 1.76 |  | C=CC(=O)N1C[C@H](C)N(C2=NC(=O)C3(CCc4ccccc43)c3nc(-c4ccccc4F)c(Cl)cc32)C[C@H]1C (stereo partly drawn) [Example 1-7, 5′-((2S,5R)-4-Acryloyl-2,5-dimethylpiperazin-1-yl)-3′-chloro-2′-(2-fluorophenyl)-2,3-dihdyro-7′H-spiro[indene-1,8′-[1,6]naphthyridin]-7′-one]
3 | 5.28 |  | 1.72 | C=CC(=O)N1C[C@H](C)N(C2=NC(=O)C3(CCc4ccccc43)c3nc(-c4ccccc4F)c(Cl)cc32)C[C@H]1C (single isomer, unassigned) [Example 1-7-1]
4 | 25.9 |  |  | C=CC(=O)N1C[C@H](C)N(C2=NC(=O)C(C)(c3ccccc3)c3nc(-c4ccccc4F)c(Cl)cc32)C[C@H]1C (stereo partly drawn) [Example 1-5, 5-((2S,5R)-4-Acryloyl-2,5-dimethylpiperazin-1-yl)-3-chloro-2-(2-fluorophenyl)-8-methyl-8-phenyl-1,6-naphthyridin-7(8H)-one]
5 | 250 |  |  | C=CC(=O)N1C[C@H](C)N(C2=NC(=O)C(C)(C3CCCC3)c3nc(-c4ccccc4F)c(Cl)cc32)C[C@H]1C (single isomer, unassigned) [Example 1-1-1]
6 | 13.3 | 1.77 |  | C=CC(=O)N1CCN(C2=NC(=O)C(C)(CC(C)C)c3nc(-c4ccccc4F)c(Cl)cc32)[C@@H](C)C1 (single isomer, unassigned) [Example 3-1-2]
7 | 7.74 |  | 3.26 | C=CC(=O)N1C[C@H](C)N(C2=NC(=O)C3(CCc4ccccc43)c3nc(-c4ccccc4F)c(Cl)cc32)C[C@H]1C (single isomer, unassigned) [Example 1-7-2]
8 | 53.8 |  |  | C=CC(=O)N1C[C@H](C)N(C2=NC(=O)C(C)(CC(C)C)c3nc(-c4ccccc4F)c(Cl)cc32)C[C@H]1C (single isomer, unassigned) [Example 1-8-1]
9 | 14.3 |  |  | C=CC(=O)N1CCN(C2=NC(=O)C(C)(CC(C)C)c3nc(-c4ccccc4F)c(Cl)cc32)[C@@H](C)C1 (stereo partly drawn) [Example 3-1, 5-((S)-4-Acryloyl-2-methylpiperazin-1-yl)-3-chloro-2-(2-fluorophenyl)-8-isobutyl-8-methyl-1,6-naphthyridin-7(8H)-one]
10 | 3.37 | 1.77 |  | C=CC(=O)N1C[C@H](C)N(C2=NC(=O)C3(Cc4ccccc4C3)c3nc(-c4ccccc4F)c(Cl)cc32)C[C@H]1C [Example 2-2, 5′-((2S,5R)-4-acryloyl-2,5-dimethylpiperazin-1-yl)-3′-chloro-2′-(2-fluorophenyl)-1,3-dihydro-7′H-spiro[indene-2,8′-[1,6]naphthyridin]-7′-one]
11 | 18.6 |  |  | C=CC(=O)N1C[C@H](C)N(C2=NC(=O)C(C3CC3)(C3CC3)c3nc(-c4ccccc4F)c(Cl)cc32)C[C@H]1C [Example 2-1, 5-((2S,5R)-4-Acryloyl-2,5-dimethylpiperazin-1-yl)-3-chloro-8,8-dicyclopropyl-2-(2-fluorophenyl)-1,6-naphthyridin-7(8H)-one]
12 | 139 |  |  | C=CC(=O)N1C[C@H](C)N(C2=NC(=O)C(C)(CC)c3nc(-c4ccccc4F)c(Cl)cc32)C[C@H]1C (single isomer, unassigned) [Example 1-4-2]
13 | 186 |  |  | C=CC(=O)N1C[C@H](C)N(C2=NC(=O)C(C)(c3ccccc3)c3nc(-c4ccccc4F)c(Cl)cc32)C[C@H]1C (single isomer, unassigned) [Example 1-5-1]
14 | 1.69 | 0.95 |  | C=CC(=O)N1C[C@H](C)N(C2=NC(=O)C(C)(C3CCC3)c3nc(-c4ccccc4F)c(Cl)cc32)C[C@H]1C (stereo partly drawn) [Example 1-3, 5-((2S,5R)-4-Acryloyl-2,5-dimethylpiperazin-1-yl)-3-chloro-8-cyclobutyl-2-(2-fluorophenyl)-8-methyl-1,6-naphthyridin-7(8H)-one]
15 | 1.43 |  |  | C=CC(=O)N1C[C@H](C)N(C2=NC(=O)C(C)(C3CCCC3)c3nc(-c4ccccc4F)c(Cl)cc32)C[C@H]1C (single isomer, unassigned) [Example 1-1-2]
16 | 4.95 |  | 1.62 | C=CC(=O)N1C[C@H](C)N(C2=NC(=O)C(C)(CC(C)C)c3nc(-c4ccccc4F)c(Cl)cc32)C[C@H]1C (single isomer, unassigned) [Example 1-8-2]
17 | 94.7 |  |  | C=CC(=O)N1CCN(C2=NC(=O)C(C)(CC(C)C)c3nc(-c4ccccc4F)c(Cl)cc32)[C@@H](C)C1 (single isomer, unassigned) [Example 3-1-1]
18 | >250 |  |  | C=CC(=O)N1C[C@H](C)N(C2=NC(=O)C(C)(C3CC3)c3nc(-c4ccccc4F)c(Cl)cc32)C[C@H]1C (single isomer, unassigned) [Example 1-2-2]
19 | 2.68 |  |  | C=CC(=O)N1C[C@H](C)N(C2=NC(=O)C(C)(C3CCCC3)c3nc(-c4ccccc4F)c(Cl)cc32)C[C@H]1C (mixture of isomers) [Example 1-1, 5-((2S,5R)-4-Acryloyl-2,5-dimethylpiperazin-1-yl)-3-chloro-8-cyclopentyl-2-(2-fluorophenyl)-8-methyl-1,6-naphthyridin-7(8H)-one]
20 | 5.78 |  | 3.69 | C=CC(=O)N1C[C@H](C)N(C2=NC(=O)C(C)(CC(C)C)c3nc(-c4ccccc4F)c(Cl)cc32)C[C@H]1C (stereo partly drawn) [Example 1-8, 5-((2S,5R)-4-Acryloyl-2,5-dimethylpiperazin-1-yl)-3-chloro-2-(2-fluorophenyl)-8-isobutyl-8-methyl-1,6-naphthyridin-7(8H)-one]
21 | 0.55 | 0.35 |  | C=CC(=O)N1C[C@H](C)N(C2=NC(=O)C(C)(C3CCC3)c3nc(-c4ccccc4F)c(Cl)cc32)C[C@H]1C (single isomer, unassigned) [Example 1-3-2]
22 | 5.15 |  | 1.45 | C=CC(=O)N1C[C@H](C)N(C2=NC(=O)C(C)(C3CC3)c3nc(-c4ccccc4F)c(Cl)cc32)C[C@H]1C (single isomer, unassigned) [Example 1-2-1]
23 | 14.9 |  |  | C=CC(=O)N1C[C@H](C)N(C2=NC(=O)C(C)(c3ccccc3)c3nc(-c4ccccc4F)c(Cl)cc32)C[C@H]1C (single isomer, unassigned) [Example 1-5-2]
24 | 201 |  |  | C=CC(=O)N1C[C@H](C)N(C2=NC(=O)C(C)(C3CCC3)c3nc(-c4ccccc4F)c(Cl)cc32)C[C@H]1C (single isomer, unassigned) [Example 1-3-1]
25 | 7.28 | 3.31 |  | C=CC(=O)N1C[C@H](C)N(C2=NC(=O)C3(CCCCC3)c3nc(-c4ccccc4F)c(Cl)cc32)C[C@H]1C [Example 1-6, 5′-((2S,5R)-4-Acryloyl-2,5-dimethylpiperazin-1-yl)-3′-chloro-2′-(2-fluorophenyl)-7′H-spiro[cyclohexane-1,8′-[16,]naphthyridin]-7′-one]
26 | 11.2 | 2.74 |  | C=CC(=O)N1C[C@H](C)N(C2=NC(=O)C(C)(CC)c3nc(-c4ccccc4F)c(Cl)cc32)C[C@H]1C (single isomer, unassigned) [Example 1-4-1]
